Data as given in PubChem BioAssay (NCI).
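Briefly, cells in 96-well plates were exposed to five compound concentrations for 48 h, and endpoints were estimated by linear interpolation. GI50 is the concentration that inhibits growth by half. At the TGI there is no net growth.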

System: SN12C renal
Assay: NCI tumour cell line growth inhibition, 48 h

SMILES: C=C(C)[C@@H]1CC[C@]2(C(=O)OCCCC[P+](c3ccccc3)(c3ccccc3)c3ccccc3)CC[C@]3(C)[C@H](CC[C@@H]4[C@@]5(C)CC[C@H](OC(=O)C(Cl)Cl)C(C)(C)[C@@H]5CC[C@]43C)[C@@H]12
- GI50: 270 nM
- TGI: 1580 nM
